# Data reported in patent US20260262643A1, “HERBICIDAL BENZOXAZINES” (FMC CORPORATION, priority 2022, published 2026).
# Experiments:
# soybean [1] = experiment: Test C preemergence; assay type: in vivo, Glycine max; details: for Soybean plant response rating: preemergence, 0 to 100 scale (0 no effect, 100 complete control)
# Method in brief: (§1)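 Pre: seeds in loam/sand, directed soil spray. Post: 1–2 leaf plants, 2–10 cm. Cmpd in non-phytotoxic solvent + surfactant. Greenhouse 10 d; visual rating vs untreated, 0 = none, 100 = complete control.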
# blackgrass [2] = experiment: Test C postemergence; assay type: in vivo, Alopecurus myosuroides; details: 10 days
# Method in brief: as §1
# blackgrass [3] = experiment: Test C preemergence; assay type: in vivo, Alopecurus myosuroides; details: for Plant response rating, Blackgrass: Preemergence; for Blackgrass plant response rating: preemergence
# Method in brief: as §1
# oat, wild [4] = experiment: Test C postemergence; assay type: in vivo, Avena fatua; details: 10 days
# Method in brief: as §1
# wheat [5] = experiment: Test C preemergence; assay type: in vivo, Triticum aestivum; details: for Wheat plant response rating: preemergence, 0 to 100 scale (0 no effect, 100 complete control)
# Method in brief: as §1
# ryegrass, Italian [6] = experiment: Test C preemergence; assay type: in vivo, Lolium multiflorum; details: for Ryegrass, Italian plant response rating: preemergence, 0 to 100 scale (0 no effect, 100 complete control)
# Method in brief: as §1
# kochia [7] = experiment: Test C preemergence; assay type: in vivo, Bassia scoparia; details: for Kochia plant response rating: preemergence, 0 to 100 scale (0 no effect, 100 complete control)
# Method in brief: as §1
# pigweed, palmer [8] = experiment: Test C preemergence; assay type: in vivo, Amaranthus palmeri; details: for Pigweed, Palmer plant response rating: preemergence, 0 to 100 scale (0 no effect, 100 complete control)
# Method in brief: as §1
# wheat [9] = experiment: Test C postemergence; assay type: in vivo, Triticum aestivum; details: 10 days
# Method in brief: as §1
# barnyardgrass [10] = experiment: Test C preemergence; assay type: in vivo, Echinochloa crusgalli; details: for Plant response rating, Barnyardgrass: Preemergence; for Barnyardgrass plant response rating: preemergence
# Method in brief: as §1
# corn [11] = experiment: Test C postemergence; assay type: in vivo, Zea mays; details: 10 days
# Method in brief: as §1
# ragweed [12] = experiment: Test C postemergence; assay type: in vivo, Ambrosia artemisiifolia; details: 10 days
# Method in brief: as §1
# ducksalad = experiment: Test D flooded paddy test; assay type: in vivo, Heteranthera limosa; details: 250 g ai/ha, applied to paddy water, visual rating after 13 to 14 days, scale 0 to 100 (0 no effect, 100 complete control)
# Method in brief: (§2)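 Post-flood water application at the 2-leaf stage; 3 cm flood depth kept constant; visual control rating 0–100 after 13–14 days greenhouse growth.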
# barnyardgrass [13] = experiment: Test C postemergence; assay type: in vivo, Echinochloa crusgalli; details: 10 days
# Method in brief: as §1
# corn [14] = experiment: Test C preemergence; assay type: in vivo, Zea mays; details: for Corn plant response rating: preemergence, 0 to 100 scale (0 no effect, 100 complete control)
# Method in brief: as §1
# pigweed, palmer [15] = experiment: Test C postemergence; assay type: in vivo, Amaranthus palmeri; details: 10 days
# Method in brief: as §1
# horseweed = experiment: Test C postemergence; assay type: in vivo, Erigeron canadensis; details: 10 days
# Method in brief: as §1
# galium = experiment: Test C postemergence; assay type: in vivo, Galium aparine; details: 10 days
# Method in brief: as §1
# sedge, umbrella = experiment: Test D flooded paddy test; assay type: in vivo, Cyperus difformis; details: 250 g ai/ha, applied to paddy water, visual rating after 13 to 14 days, scale 0 to 100 (0 no effect, 100 complete control)
# Method in brief: as §2
# green foxtail [16] = experiment: Test C postemergence; assay type: in vivo, Setaria viridis; details: 10 days
# Method in brief: as §1
# ragweed [17] = experiment: Test C preemergence; assay type: in vivo, Ambrosia artemisiifolia; details: for Ragweed plant response rating: preemergence, 0 to 100 scale (0 no effect, 100 complete control)
# Method in brief: as §1
# green foxtail [18] = experiment: Test C preemergence; assay type: in vivo, Setaria viridis; details: for Foxtail, Green plant response rating: preemergence, 0 to 100 scale (0 no effect, 100 complete control)
# Method in brief: as §1
# barnyardgrass [19] = experiment: Test D flooded paddy test; assay type: in vivo, Echinochloa crus-galli; details: 250 g ai/ha, applied to paddy water, visual rating after 13 to 14 days, scale 0 to 100 (0 no effect, 100 complete control)
# Method in brief: as §2
# rice = experiment: Test D flooded paddy test; assay type: in vivo, Oryza sativa; details: 250 g ai/ha, applied to paddy water, visual rating after 13 to 14 days, scale 0 to 100 (0 no effect, 100 complete control)
# Method in brief: as §2
# ryegrass, Italian [20] = experiment: Test C postemergence; assay type: in vivo, Lolium multiflorum; details: 10 days
# Method in brief: as §1
# kochia [21] = experiment: Test C postemergence; assay type: in vivo, Bassia scoparia; details: 10 days
# Method in brief: as §1
# oat, wild [22] = experiment: Test C preemergence; assay type: in vivo, Avena fatua; details: for Oat, Wild plant response rating: preemergence, 0 to 100 scale (0 no effect, 100 complete control)
# Method in brief: as §1
# soybean [23] = experiment: Test C postemergence; assay type: in vivo, Glycine max; details: 10 days
# Method in brief: as §1
# [24] = 125 g ai/ha, postemergence, 0 to 100 scale, 0 no effect, 100 complete control
# [25] = Postemergence, 500 g ai/ha, visual 0 to 100 scale (0 no effect, 100 complete control)
# [26] = 500 g ai/ha, visual rating after 10 days, 0 to 100 scale (0 no effect, 100 complete control)
# [27] = Test C, 125 g ai/ha, 0 to 100 scale (0 no effect, 100 complete control)
# [28] = Preemergence, 125 g ai/ha, 0 to 100 scale, 0 no effect, 100 complete control
# [29] = 500 g ai/ha, postemergence, 0 to 100 scale (0 no effect, 100 complete control)
# [30] = Postemergence, 125 g ai/ha, 0 to 100 scale (0 no effect, 100 complete control)
# [31] = 500 g ai/ha, 0 to 100 scale (0 no effect, 100 complete control)
# [32] = 125 g ai/ha, 0 to 100 scale, 0 no effect, 100 complete control
smiles,measurement,setting,value
COC[C@H]1CN(C(=O)c2cc(-n3cnc(C4CCC4)n3)ccc2C)c2cccc(Cl)c2O1 [Compound 267],Soybean plant response rating,soybean [1]; 500 g ai/ha,90
same,Soybean plant response rating,"soybean [1]; Test C, 125 g ai/ha",90
same,"Plant response rating, Blackgrass",blackgrass [2]; [24],30
same,"Plant response rating, Blackgrass",blackgrass [2]; [25],50
same,"Plant response rating, Blackgrass",blackgrass [3]; [26],60
same,Blackgrass plant response rating,blackgrass [3]; [27],20
same,"Plant response rating, Oat, Wild","oat, wild [4]; [24]",0
same,Wheat plant response rating,wheat [5]; 500 g ai/ha,30
same,Wheat plant response rating,"wheat [5]; Test C, 125 g ai/ha",20
same,"Ryegrass, Italian plant response rating","ryegrass, Italian [6]; 500 g ai/ha",90
same,"Ryegrass, Italian plant response rating","ryegrass, Italian [6]; Test C, 125 g ai/ha",70
same,Kochia plant response rating,kochia [7]; 500 g ai/ha,90
same,Kochia plant response rating,"kochia [7]; Test C, 125 g ai/ha",90
same,"Pigweed, Palmer plant response rating","pigweed, palmer [8]; 500 g ai/ha",100
same,"Pigweed, Palmer plant response rating","pigweed, palmer [8]; Test C, 125 g ai/ha",90
same,"Plant response rating, Wheat",wheat [9]; [24],20
same,"Plant response rating, Barnyardgrass",barnyardgrass [10]; [26],80
same,Barnyardgrass plant response rating,barnyardgrass [10]; [27],60
same,"Plant response rating, Corn",corn [11]; [24],50
same,"Plant response rating, Corn",corn [11]; [25],90
same,"Plant response rating, Ragweed",ragweed [12]; [24],70
same,"Plant response rating, Ducksalad (Flood)",ducksalad,50
same,"Plant response rating, Barnyardgrass",barnyardgrass [13]; [24],60
same,"Plant response rating, Barnyardgrass",barnyardgrass [13]; [25],90
same,Corn plant response rating,corn [14]; 500 g ai/ha,10
same,Corn plant response rating,"corn [14]; Test C, 125 g ai/ha",0
same,"Plant response rating, Pigweed, Palmer","pigweed, palmer [15]; [24]",90
same,"Plant response rating, Horseweed",horseweed; [24],60
same,"Plant response rating, Horseweed",horseweed; [25],50
same,"Plant response rating, Galium",galium; [24],100
same,"Plant response rating, Galium",galium; [25],100
same,"Plant response rating, Sedge, Umbrella (Flood)","sedge, umbrella",98
same,"Plant response rating, Foxtail, Green",green foxtail [16]; [24],70
same,"Plant response rating, Foxtail, Green",green foxtail [16]; [25],90
same,Ragweed plant response rating,ragweed [17]; 500 g ai/ha,60
same,Ragweed plant response rating,"ragweed [17]; Test C, 125 g ai/ha",40
same,"Foxtail, Green plant response rating",green foxtail [18]; 500 g ai/ha,100
same,"Foxtail, Green plant response rating","green foxtail [18]; Test C, 125 g ai/ha",100
same,"Plant response rating, Barnyardgrass (Flood)",barnyardgrass [19],35
same,"Plant response rating, Rice (Flood)",rice,25
same,"Plant response rating, Ryegrass, Italian","ryegrass, Italian [20]; [24]",60
same,"Plant response rating, Kochia",kochia [21]; [24],90
same,"Oat, Wild plant response rating","oat, wild [22]; 500 g ai/ha",60
same,"Oat, Wild plant response rating","oat, wild [22]; Test C, 125 g ai/ha",40
same,"Plant response rating, Soybean",soybean [23]; [24],100
Cc1ccc(-n2cnc(CC#N)n2)cc1C(=O)N1C[C@H](C)Oc2c(Cl)cccc21 [Compound 364],Soybean plant response rating,soybean [1]; 500 g ai/ha,100
same,"Plant response rating, Soybean",soybean [1]; [28],100
same,"Plant response rating, Blackgrass",blackgrass [2]; [29],100
same,"Plant response rating, Blackgrass",blackgrass [2]; [30],90
same,Blackgrass plant response rating,blackgrass [3]; [31],90
same,"Plant response rating, Blackgrass",blackgrass [3]; [32],60
same,"Plant response rating, Oat, Wild","oat, wild [4]; [29]",70
same,"Plant response rating, Oat, Wild","oat, wild [4]; [30]",60
same,Wheat plant response rating,wheat [5]; 500 g ai/ha,40
same,"Plant response rating, Wheat",wheat [5]; [28],0
same,"Ryegrass, Italian plant response rating","ryegrass, Italian [6]; 500 g ai/ha",90
same,"Plant response rating, Ryegrass, Italian","ryegrass, Italian [6]; [28]",60
same,Kochia plant response rating,kochia [7]; 500 g ai/ha,90
same,"Plant response rating, Kochia",kochia [7]; [28],70
same,"Pigweed, Palmer plant response rating","pigweed, palmer [8]; 500 g ai/ha",100
same,"Plant response rating, Pigweed, Palmer","pigweed, palmer [8]; [28]",100
same,"Plant response rating, Wheat",wheat [9]; [29],80
same,"Plant response rating, Wheat",wheat [9]; [30],30
same,Barnyardgrass plant response rating,barnyardgrass [10]; [31],100
same,"Plant response rating, Barnyardgrass",barnyardgrass [10]; [32],50
same,"Plant response rating, Corn",corn [11]; [29],50
same,"Plant response rating, Corn",corn [11]; [30],30
same,"Plant response rating, Ragweed",ragweed [12]; [29],80
same,"Plant response rating, Ragweed",ragweed [12]; [30],70
same,"Plant response rating, Ducksalad (Flood)",ducksalad,80
same,"Plant response rating, Barnyardgrass",barnyardgrass [13]; [29],80
same,"Plant response rating, Barnyardgrass",barnyardgrass [13]; [30],50
same,Corn plant response rating,corn [14]; 500 g ai/ha,30
same,"Plant response rating, Corn",corn [14]; [28],10
same,"Plant response rating, Pigweed, Palmer","pigweed, palmer [15]; [29]",90
same,"Plant response rating, Pigweed, Palmer","pigweed, palmer [15]; [30]",70
same,"Plant response rating, Horseweed",horseweed; [29],0
same,"Plant response rating, Horseweed",horseweed; [30],0
same,"Plant response rating, Galium",galium; [29],100
same,"Plant response rating, Galium",galium; [30],100
same,"Plant response rating, Sedge, Umbrella (Flood)","sedge, umbrella",95
same,"Plant response rating, Foxtail, Green",green foxtail [16]; [29],90
same,"Plant response rating, Foxtail, Green",green foxtail [16]; [30],80
same,Ragweed plant response rating,ragweed [17]; 500 g ai/ha,80
same,"Plant response rating, Ragweed",ragweed [17]; [28],20
same,"Foxtail, Green plant response rating",green foxtail [18]; 500 g ai/ha,100
same,"Plant response rating, Foxtail, Green",green foxtail [18]; [28],100
same,"Plant response rating, Barnyardgrass (Flood)",barnyardgrass [19],10
same,"Plant response rating, Rice (Flood)",rice,10
same,"Plant response rating, Ryegrass, Italian","ryegrass, Italian [20]; [29]",100
same,"Plant response rating, Ryegrass, Italian","ryegrass, Italian [20]; [30]",70
same,"Plant response rating, Kochia",kochia [21]; [29],90
same,"Plant response rating, Kochia",kochia [21]; [30],70
same,"Oat, Wild plant response rating","oat, wild [22]; 500 g ai/ha",30
same,"Plant response rating, Oat, Wild","oat, wild [22]; [28]",10
same,"Plant response rating, Soybean",soybean [23]; [29],100
same,"Plant response rating, Soybean",soybean [23]; [30],100
